The values below are quoted from earlier work in publication PMC6172068 (Cancer Science, 2018).

The subject of series [1] is FLT3 mutation-positive R/R AML. The following applies: cited from earlier work.
Series [2] deals with AML. The conditions noted are these: single agent; cited from earlier work.
Series [3] concerns AML. The conditions noted are these: sorafenib plus intensive chemotherapy, patients aged <60 years; cited from earlier work.

For the molecule `CC1(COc2ccc3c(c2)ncn3-c2ccc3cccc(N4CCC(N)CC4)c3n2)COC1` [crenolanib], in series [1], the antileukemic activity entry was “strong antileukemic activity”. Consider `CO[C@@H]1[C@H](N(C)C(=O)c2ccccc2)C[C@H]2O[C@]1(C)n1c3ccccc3c3c4c(c5c6ccccc6n2c5c31)C(=O)NC4` [midostaurin], for which, in series [2], the CR result is “not achieved”. As for `CNC(=O)c1cc(Oc2ccc(NC(=O)Nc3ccc(Cl)c(C(F)(F)F)c3)cc2)ccn1` [sorafenib], the “3-year event-free survival rate” value in series [3] is 40%.
